# Laboratory results published in US20090197279A1, “MICROTUBULE SYNTHESIS AS A BIOMARKER” (KINEMED, INC., priority 2005, published 2009).
# Experiments:
# [1] = system: hippocampal MT subpopulations; assay: Tubulin abundance of MT subpopulations in hippocampus by Western blot for α-tubulin; format: in vivo, mouse; settings: 0.48 nmol glutamate ICVC; 24 hours; vs mock
# Description: (§1) FIG. 7 depicts the effects of ICV glutamate on the relative amounts of MT subpopulations and on total protein synthesis in murine hippocampus. (A, B) Tubulin abundances are measured by Western blot analysis for α-tubulin at 8 hour (A) and 24 hours (B). Subpopulations were total extract (total), free tubulin dimers, tau-associated MTs, tau-nonassociated (MAP2/STOP) MTs and cold stable (CS) MTs. Mock and glutamate infused ICVC mice are shown (cf. FIGS. 6A and B). […] (C) Fractional synthesis of total hippocampal proteins. Glutamate increased protein synthesis versus mock-treated animals (*p<0.01); this effect was blocked by coadministration with 0.66 pmol of Rp-cAMP (**p<0.02).
# Tubulin was purified using minor modifications of protocols described previously (Fanara, P., Oback, B., Ashman, K., Podtelejnikov, A., Brandt, R. Identification of MINUS, a small polypeptide that functions as a microtubule nucleation suppressor. EMBO J. 18, 565-577 (1999); Fanara, P. et al. In vivo measurement of microtubule dynamics using stable isotope labeling with heavy water. Effect of taxanes. J. Biol. Chem. 279, 49940-49947 (2004). Briefly, cultured neurons were gently scraped off culture plates, washed in phosphate-buffered saline (PBS), and homogenized in microtubule-stabilizing buffer. For purification ex vivo, mice were anesthetized with isoflurane and euthanized by cervical dislocation. Brains were rapidly removed and washed in microtubule-stabilizing buffer (MSB); hippocampi were dissected and gently homogenized in MSB. […] The relative abundance of tubulin in each preparation (Tubulin dimers and TAU5-bound, MAP2-bound, and unbound microtubule fractions) was quantified by Western blot, and tubulin from these fractions was further purified by ion exchange and size exclusion chromatography, as previously described (Fanara, P. et al. In vivo measurement of microtubule dynamics using stable isotope labeling with heavy water. Effect of taxanes. J. Biol. Chem. 279, 49940-49947 (2004)).
# [2] = system: total hippocampal proteins; assay: Fractional synthesis of total hippocampal proteins; format: in vivo, mouse; settings: glutamate ICVC vs mock-treated animals
# Description: as §1
# This hypothesis had not previously been tested in the living brain, however. To test this hypothesis, we used the methods of the invention disclosed herein. Mice were infused with 6 μl water containing 0.48 nmol glutamate (80 μM in the infusate), or glutamate plus 0.66 pmol Rp-cAMP (110 nM in the infusate). Label incorporation into hippocampal tubulin dimers and into microtubule polymers was then quantified after administration of ^2H2O for 8 hours or 24 hours (FIGS. 7A and 7B). […] These findings further strengthen the previously reported correlation between hippocampus glutamate NMDA receptor-dependent learning (long-term potentiation) and protein synthesis (Kandel, E. R. The molecular biology of memory storage: a dialogue between genes and synapses. Science 294, 1030-1038 (2001)). By the same criterion, the glutamate-induced program of changes in hippocampal microtubule dynamics shown in FIGS. 6 and 7 also alters hippocampal total protein synthesis in vivo (data not show), further supporting the capacity of the invention disclosed herein to generate a biochemical record of basic neuroanatomic connectivity in the brain and thereby to reveal the dynamics of synaptogenesis in vivo.
structure (smiles),measurement,setting,value
"N[C@@H](CCC(=O)[O-])C(=O)[O-].[K+].[K+] [glutamate, potassium L-glutamate]","abundance of CS-MTs, Western blot",[1],increased
same,"abundance of MAP2/STOP-MTs (MAP2-associated microtubules), Western blot",[1],increased
same,"abundance of tau-MTs, Western blot",[1],remained unchanged
same,fractional synthesis of total hippocampal proteins,[2],alters
same,fractional synthesis of total hippocampal proteins,[2]; listed as Glutamate,increased
